Laboratory results published in the NIST ThermoML archive (doi:10.1016/j.jct.2013.09.017).

Assay: xn = mol fraction of the nth substance listed
Details: 101 kPa, Liquid; for viscosity: Capillary tube (Ostwald / Ubbelohde) method; for mass density: Vibrating tube method

CCCCCCCCN(CCCCCCCC)CCCCCCCC [trioctylamine] + CCCCCCC
Details	mass density, 283.15 K [kg/m3]	mass density, 293.15 K [kg/m3]	mass density, 303.15 K [kg/m3]	viscosity, 283.15 K [mPa·s]	viscosity, 293.15 K [mPa·s]	viscosity, 303.15 K [mPa·s]
x1 = 0.0102	696.37	688.04	679.6	0.494	0.44	0.394
x1 = 0.103	726.07	718.22	710.29	0.856	0.738	0.642
x1 = 0.2636	759.83	752.47	745.07	1.827	1.51	1.269
x1 = 0.3223	768.63	761.41	754.13	2.321	1.899	1.569
x1 = 0.409	779.4	772.31	765.19	3.241	2.57	2.055
x1 = 0.5079	789.24	782.28	775.31	4.499	3.464	2.734
x1 = 0.5997	796.55	789.72	782.85	5.814	4.377	3.374
x1 = 0.7019	803.32	796.55	789.77	7.438	5.434	4.107
x1 = 0.8063	808.97	802.27	795.57	9.477	6.792	5
x1 = 0.906	813.43	806.79	800.15	11.64	8.231	5.972
x1 = 1	817.08	810.48	803.88	14.25	9.957	7.114
